This note sets out measurements from ChEMBL document CHEMBL5725283, “2-pyridinecarboxamide derivatives, compositions containing such compounds, and methods of treatment” (2016).

What is called EC50 is the concentration giving half of the maximal effect.

This assay in a line: Glucokinase Activity Assay: Recombinant human liver glucokinase was expressed as a FLAG fusion protein in E. coli, and purified on ANTIFLAG M2 AFFINITY GEL (Sigma). The assay was carried out at 30° C. in a 96-well plate. In the plate was distributed 69 μl each of assay buffer (25 mM Hepes Buffer: pH=7.2, 2 mM MgCl2, 1 mM ATP, 0.5 mM TNAD, 1 mM dithiothreitol), to which was added 1 μl of a DMSO solution of the compound or DMSO as control. Then, 20 μl of pre-ice-cooled enzyme mixture (FLAG-GK, 20 U/ml G6PDH) was distributed thereto, to which was added 10 μl of 25 mM glucose as substrate to initiate the reaction (final glucose concentration=2.5 mM). After starting the reaction, the absorbance at 405 nm was measured every 30 seconds for 10 minutes to evaluate the compound based on the initial increase for 5 minutes. FLAG-GK was added so that the increase of absorbance after 5 minutes fell between 0.05 to 0.1 in the presence of 1% DMSO.

`CCOC(=O)Cc1csc(NC(=O)c2nc(Sc3nncn3C)ccc2Sc2ccc(F)cc2)n1`: the EC50 was found to be 0.0493 µM.
Take `Cn1cnnc1Sc1ccc(Sc2ccc(F)cc2)c(C(=O)Nc2nc(CC(=O)O)cs2)n1`: the EC50 is 0.137 µM.
Regarding `CCOC(=O)CSc1cnc(NC(=O)c2nc(Sc3nncn3C)ccc2Sc2ccc(F)cc2)s1`, the EC50 amounted to 0.0134 µM.
